Consider 2 molecules from patent US20220202882A1, “EFFECT OF COMBINATION OF BIFIDOBACTERIUM AND BERBERINE ON PRE-DIABETES AND TYPE 2 DIABETES” (The Fourth Military Medical University, priority 2018, published 2022).

Counter-ions that a name gives are not always drawn.

Series [1] has as its system pre-diabetic and type 2 diabetes mellitus patients. Put plainly: Clinical trial: venous plasma glucose at 2 hours post OGTT (2-h PPG). It counts as in vivo, human. As to conditions: for Effect on 2 h-PPG (in words) / Post-treatment 2-h PPG - pre-treatment 2-h PPG, mean value / Post-treatment 2-h PPG <10.0 mmol/L, Yes-N (%): 16 weeks of treatment; for Effect on 2 h-PPG (in words): Kruskal-Wilcox test; for Post-treatment 2-h PPG, mean value: after 16 weeks of treatment; for Pre-treatment 2-h PPG, mean value: baseline before treatment. The method, then:
From June 2015 to October 2018, a double-blind, randomized, and parallel-controlled trial, studying the effects of the combined use of Bifidobacterium and berberine on pre-diabetic and type 2 diabetes mellitus patients, was conducted in 10 research centers in Xi'an, Yan'an and Shangluo of Shaanxi province, etc., including the First Affiliated Hospital of the Fourth Military Medical University. The trial included an enrollment stage of 2 weeks and a treatment stage of 16 weeks. After passing the first visit 1 (see V1 in Table 1), the subjects entered the enrollment stage, i.e., 2 weeks of lifestyle intervention, followed by a re-screening (see V2 in Table 1). The subjects were subjected to a 16-week course of treatment after passing the screening. See Table 1 for the detailed screening parameters. After the enrollment stage, the baseline data of the 300 successfully enrolled subjects were collected. Meanwhile, the subjects started to receive lifestyle guidance, and were randomly divided into four groups for 16 weeks of treatments. 1) Bifidobacterium group: the subjects were administered with Bifidobacterium capsules (Livzon Pharmaceutical Group Inc., batch no.: 20141013), 0.35 g/capsule, each capsule containing 50,000,000 viable bacteria (Bifidobacterium adolescentis DM8504), 2 capsules/time, 2 times/day, plus berberine placebo tablets (Northeast Pharma Group Shenyang First Pharma Co., Ltd., Lot no.: 20150101, containing 80.2% microcrystalline cellulose, 9.4% pregelatinized starch, 6.4% sodium carboxymethyl starch, 1% magnesium stearate, and 3% copovidone), 0.1 g/tablet, 5 tablets/time, 2 times/day. 2) Berberine group: the subjects were administered with berberine tablets (Northeast Pharma Group Shenyang First Pharma Co., Ltd., Lot no.: 130917, each tablet weighted 0.165 g and contained 0.1 g active berberine ingredient (berberine hydrochloride), with the same excipients as the placebo tablets), 5 tablets/time, 2 times/day, plus Bifidobacterium placebo capsules (Livzon Pharmaceutical Group Inc., Lot no.: 141001, specifically containing 0.348 g spray-dried lactose, and 0.002 g magnesium stearate), 0.35 g/capsule, 2 capsules/time, 2 times/day. 3) Combination Group: the subjects were administered with Bifidobacterium capsules, 0.35 g/capsule, each capsule containing 50,000,000 viable bacteria (B. adolescentis DM8504), 2 capsules/time, 2 times/day, plus berberine tablets, 0.1 g/tablet, each tablet containing 0.1 g active berberine ingredient (berberine hydrochloride), 5 tablets/time, 2 times/day. 4) Control group: the subjects were administered with Bifidobacteria placebo capsules, 0.35 g/capsule, 2 capsules/time, 2 times/day, plus berberine placebo tablets, 0.1 g/tablet, 5 tablets/time, 2 times/day. Bifidobacterium capsules were taken after meals and berberine tablets were taken before meals. Before the oral glucose tolerance test (OGTT), the subjects took regular diets for at least 3 days, with carbohydrates no less than 150 g. After 10-12 h fasting, initial blood samples were collected after the subjects emptied their bladders. Then the subjects drank a sugar solution made by dissolving 75 g anhydrous glucoses in 300 ml water over about 5 min, and were collected for blood samples after 30 min and 2 h. […]

Series [2] has the same test system. Put plainly: Clinical trial: adverse events (safety evaluation). It counts as in vivo, human. The method, then:
From June 2015 to October 2018, a double-blind, randomized, and parallel-controlled trial, studying the effects of the combined use of Bifidobacterium and berberine on pre-diabetic and type 2 diabetes mellitus patients, was conducted in 10 research centers in Xi'an, Yan'an and Shangluo of Shaanxi province, etc., including the First Affiliated Hospital of the Fourth Military Medical University.
The trial included an enrollment stage of 2 weeks and a treatment stage of 16 weeks. After passing the first visit 1 (see V1 in Table 1), the subjects entered the enrollment stage, i.e., 2 weeks of lifestyle intervention, followed by a re-screening (see V2 in Table 1). The subjects were subjected to a 16-week course of treatment after passing the screening. See Table 1 for the detailed screening parameters.
After the enrollment stage, the baseline data of the 300 successfully enrolled subjects were collected. Meanwhile, the subjects started to receive lifestyle guidance, and were randomly divided into four groups for 16 weeks of treatments.
1) Bifidobacterium group: the subjects were administered with Bifidobacterium capsules (Livzon Pharmaceutical Group Inc., batch no.: 20141013), 0.35 g/capsule, each capsule containing 50,000,000 viable bacteria (Bifidobacterium adolescentis DM8504), 2 capsules/time, 2 times/day, plus berberine placebo tablets (Northeast Pharma Group Shenyang First Pharma Co., Ltd., Lot no.: 20150101, containing 80.2% microcrystalline cellulose, 9.4% pregelatinized starch, 6.4% sodium carboxymethyl starch, 1% magnesium stearate, and 3% copovidone), 0.1 g/tablet, 5 tablets/time, 2 times/day.
2) Berberine group: the subjects were administered with berberine tablets (Northeast Pharma Group Shenyang First Pharma Co., Ltd., Lot no.: 130917, each tablet weighted 0.165 g and contained 0.1 g active berberine ingredient (berberine hydrochloride), with the same excipients as the placebo tablets), 5 tablets/time, 2 times/day, plus Bifidobacterium placebo capsules (Livzon Pharmaceutical Group Inc., Lot no.: 141001, specifically containing 0.348 g spray-dried lactose, and 0.002 g magnesium stearate), 0.35 g/capsule, 2 capsules/time, 2 times/day.
3) Combination Group: the subjects were administered with Bifidobacterium capsules, 0.35 g/capsule, each capsule containing 50,000,000 viable bacteria (B. adolescentis DM8504), 2 capsules/time, 2 times/day, plus berberine tablets, 0.1 g/tablet, each tablet containing 0.1 g active berberine ingredient (berberine hydrochloride), 5 tablets/time, 2 times/day.
4) Control group: the subjects were administered with Bifidobacteria placebo capsules, 0.35 g/capsule, 2 capsules/time, 2 times/day, plus berberine placebo tablets, 0.1 g/tablet, 5 tablets/time, 2 times/day.
Bifidobacterium capsules were taken after meals and berberine tablets were taken before meals.
After the sample testing was finished, 1) Chi-Squared test and t-test were used to evaluate the intergroup balance of the baseline data including the demographic characteristics and pre-treatment indicators, wherein the baseline data referred to those collected at the second visit, before the formal administration, the data collected at the first visit on the enrollment stage were used instead if the data at the second visit was lacking; 2) two-way disordered CM-CH11, Kruska-Wilcox test, etc. were used for analysis and intergroup comparison of pre- and post-treatment indicators such as fasting plasma glucose (FPG), HbA1c, plasma glucose at 2 hours post OGTT (2-h PPG), blood pressure, blood lipids, body weight and BMI; 3) adverse events and hypoglycemia events were described in terms of the type, frequency and relevance with the drugs, for safety evaluation. Software SAS 9.1.3 was used for statistical analysis with all analysis processes being programmed.
All subjects who followed the intent-to-treat principle, grouped randomly, and received the treatment trial and at least one efficacy evaluation were included in the full Analysis Set (FAS). […]

For `COc1ccc2cc3[n+](cc2c1OC)CCc1cc2c(cc1-3)OCO2` [Berberine, berberine hydrochloride], the “Effect on 2 h-PPG (in words)” value in series [1] is given as “good effect too”. Moreover, in series [1] (FAS), the “Post-treatment 2-h PPG - pre-treatment 2-h PPG, mean value” was -1.1 mmol/L; the “Post-treatment 2-h PPG <10.0 mmol/L, Yes-N (%)” value is on record as 35(71.43) N (%); the “Post-treatment 2-h PPG, mean value” turned out to be 9.84 mmol/L; the “Pre-treatment 2-h PPG, mean value” is recorded as 11.2 mmol/L. Moreover, the “Post-treatment 2-h PPG <10.0 mmol/L, Yes-N (%)” value in series [1] (PPS) was 24(64.86) N (%). In series [2] (throughout the trial), the Adverse event rate was determined as 81.63%; the “Event rate of adverse events correlated with medications” value worked out at 18.37%; the “Number of adverse events correlated with medications (abdominal discomfort, abnormal bowel movement)” value was 19; the “Number of subjects with adverse events” value was determined as 40. Further, the “Number of subjects with adverse events correlated with medications” value in series [2] (throughout the trial) amounted to 9.
In the case of Bifidobacterium, in series [1], the “Effect on 2 h-PPG (in words)” value was “no such effect”. Moreover, in series [1] (FAS), the “Post-treatment 2-h PPG - pre-treatment 2-h PPG, mean value” was -0.246 mmol/L; the “Post-treatment 2-h PPG <10.0 mmol/L, Yes-N (%)” value was 45(45.00) N (%); the “Post-treatment 2-h PPG, mean value” is reported as 11.3 mmol/L; the “Pre-treatment 2-h PPG, mean value” came out at 11.4 mmol/L. Further, in series [1] (PPS), the “Post-treatment 2-h PPG <10.0 mmol/L, Yes-N (%)” value is on record as 31(37.35) N (%). Also, in series [2] (human, in vivo), the Adverse event rate worked out at 84%; the “Event rate of adverse events correlated with medications” value stood at 21.0%; the “Number of adverse events correlated with medications (abdominal discomfort, abnormal bowel movement)” value stood at 30; the “Number of adverse events reported” value is 203. Moreover, in series [2] (human, in vivo), the “Number of subjects with adverse events” value was 84 and the “Number of subjects with adverse events correlated with medications” value is 21.
